Patent EP0414533A1, “Use of iodopropargyl esters of alpha-amino acid derivatives as antimicrobial agents” (ROHM AND HAAS COMPANY, priority 1989, dated 1991)
Counter-ions that a name gives are not always drawn. Like-named read-outs stand apart in the source and are kept apart here.

Key:
UST = assay: In-vitro plant fungicide test; type: cell-based; set-up: inhibition of growth: concentration or dose not given beside the values; settings: Table IVb, read-out: % Control at (ppm) indicated UST; for inhibition of growth at 0.2 ppm: .2 ppm; for inhibition of growth at 0.4 ppm: .4 ppm; for inhibition of growth at 0.8 ppm: .8 ppm
Fusarium roseum (FUS) = assay: In-vitro plant fungicide test; type: cell-based; settings: Fusarium sambucinum; for inhibition of growth at 1.5 ppm: read-out: % Control at (ppm) indicated FUS, 1.5 ppm; for inhibition of growth at 3 ppm: read-out: % Control at (ppm) indicated FUS, 3 ppm; for inhibition of growth at 6 ppm: read-out: % Control at (ppm) indicated FUS, 6 ppm; for inhibition of growth at 12 ppm: read-out: % Control at (ppm) indicated FUS, 12 ppm; for inhibition of growth at 0.2 ppm: read-out: % Control at (ppm) indicated FUS, .2 ppm; for inhibition of growth at 0.4 ppm: read-out: % Control at (ppm) indicated FUS, .4 ppm; for inhibition of growth at 0.8 ppm: read-out: % Control at (ppm) indicated FUS, .8 ppm
7 FUNGI = assay: Microbicides broad spectrum secondary test against 7 fungi (Table V); type: cell-based; set-up: key: 1= no growth; 0= growth of the indicated fungi at dose indicated in ppm; settings: Mycophile agar, pH 5.0; for ANIG growth: Aspergillus niger; for APUL growth: Aureobasidium pullulans; for CRES growth: Cladosporium resinae; for GTRA growth: Gloeophyllum trabeum; for PFUN growth: Penicillium funiculosum; for RRUB growth: Rhodotorula rubra; for SSER growth: Sacharomyces cerevisiae
Description: In the case of fungi, the spores are harvested by pipetting water onto the slant and dislodging the spores with a sterile loop. The cell/spore suspension is standardized by controlling incubation time, temperature, and the volume of the diluent. The suspension is then used to inoculate the vessels containing the broth compound. […] The results of the minimum inhibitory concentration (MIC) tests of compounds of this invention are shown in Tables IIIa IIIb, IIIc, V, VI, VII, and VIII against the microorganisms shown in Table IX. [table]

[1] = tested on: Phytophthora capsici (PHY); assay: In-vitro plant fungicide test; type: cell-based; settings: Phytophthora capsici; for inhibition of growth at 0.2 ppm: .2 ppm; for inhibition of growth at 0.4 ppm: .4 ppm; for inhibition of growth at 0.8 ppm: .8 ppm
Piricularia oryzae (PIR) = assay: microbe, parasite or virus in culture; type: cell-based; settings: for inhibition of growth at 0.2 ppm: .2 ppm; for inhibition of growth at 0.4 ppm: .4 ppm; for inhibition of growth at 0.8 ppm: .8 ppm
[2] = tested on: Aureobasidium pullulans (APUL); assay: Minimum inhibitory concentration (MIC), broth two-fold serial dilution test; type: cell-based; settings: Aureobasidium pullulans, read-out: MIC (F) APUL, M9G (minimal salts media with glucose); Table IIIc, iodopropargyl esters of peptides
[3] = tested on: Pseudomonas aerugenosa (PSAE); assay: as above; settings: Pseudomonas, read-out: MIC (G-) PSAE, M9G (minimal salts media with glucose); Table IIIc, iodopropargyl esters of peptides
Aspergillus niger (ANIG) = assay: as above; type: cell-based; settings: Aspergillus niger, read-out: MIC (F) ANIG, M9G (minimal salts media with glucose); Table IIIc, iodopropargyl esters of peptides
[4] = tested on: Staphylococcus aureus (SAUR); assay: as above; settings: Staphylococcus aureus, read-out: MIC (G+) SAUR, M9G (minimal salts media with glucose); Table IIIc, iodopropargyl esters of peptides
[5] = read-out: % Control at 25 ppm FUS, 25 ppm, Table IVa, *=Phytotoxic
[6] = read-out: % Control at (ppm) indicated FUS, 25 ppm, Table IVb
[7] = Table IVb, read-out: % Control at (ppm) indicated PHY
[8] = Table IVa, read-out: % Control at 25 ppm PHY
[9] = read-out: % Control at (ppm) indicated PIR
[10] = 25 ppm, read-out: % Control at (ppm) indicated PIR
[11] = read-out: % Control at 25 ppm PIR

SMILES: CC(C)(C)OC(=O)NCC(=O)OCC#CI [Compound 1, N-t-butoxycarbonylglycine iodopropargyl ester]
- inhibition of growth at 1.5 ppm (UST): 100%
- inhibition of growth at 3 ppm (UST): 100%
- inhibition of growth at 6 ppm (UST): 100%
- inhibition of growth at 12 ppm (UST; 12 ppm): 100%
- inhibition of growth at 25 ppm (UST): 100%
- inhibition of growth at 0.2 ppm (UST): 0%
- inhibition of growth at 0.4 ppm (UST): 0%
- inhibition of growth at 0.8 ppm (UST): 50%
- inhibition of growth at 25 ppm (Fusarium roseum (FUS); [5]): 100%
- inhibition of growth at 1.5 ppm (Fusarium roseum (FUS); Table IVb): 0%
- inhibition of growth at 3 ppm (Fusarium roseum (FUS); Table IVb): 75%
- inhibition of growth at 6 ppm (Fusarium roseum (FUS); Table IVb): 100%
- inhibition of growth at 12 ppm (Fusarium roseum (FUS); Table IVb): 100%
- inhibition of growth at 25 ppm (Fusarium roseum (FUS); [6]): 100%
- inhibition of growth at 0.2 ppm (Fusarium roseum (FUS); Table IVb): 0%
- inhibition of growth at 0.4 ppm (Fusarium roseum (FUS); Table IVb): 0%
- inhibition of growth at 0.8 ppm (Fusarium roseum (FUS); Table IVb): 0%
- ANIG growth (7 FUNGI; 0.2 PPM): 0
- ANIG growth (7 FUNGI; 1 PPM): 0
- ANIG growth (7 FUNGI; 5 PPM): 1
- ANIG growth (7 FUNGI; 25 PPM): 1
- APUL growth (7 FUNGI; 0.2 PPM): 0
- APUL growth (7 FUNGI; 1 PPM): 0
- APUL growth (7 FUNGI; 5 PPM): 0
- APUL growth (7 FUNGI; 25 PPM): 1
- CRES growth (7 FUNGI; 0.2 PPM): 0
- CRES growth (7 FUNGI; 1 PPM): 0
- CRES growth (7 FUNGI; 5 PPM): 0
- CRES growth (7 FUNGI; 25 PPM): 1
- GTRA growth (7 FUNGI; 0.2 PPM): 0
- GTRA growth (7 FUNGI; 1 PPM): 1
- GTRA growth (7 FUNGI; 5 PPM): 1
- GTRA growth (7 FUNGI; 25 PPM): 1
- PFUN growth (7 FUNGI; 0.2 PPM): 0
- PFUN growth (7 FUNGI; 1 PPM): 0
- PFUN growth (7 FUNGI; 5 PPM): 0
- PFUN growth (7 FUNGI; 25 PPM): 1
- RRUB growth (7 FUNGI; 0.2 PPM): 0
- RRUB growth (7 FUNGI; 1 PPM): 0
- RRUB growth (7 FUNGI; 5 PPM): 0
- RRUB growth (7 FUNGI; 25 PPM): 1
- SSER growth (7 FUNGI; 0.2 PPM): 0
- SSER growth (7 FUNGI; 1 PPM): 0
- SSER growth (7 FUNGI; 5 PPM): 0
- SSER growth (7 FUNGI; 25 PPM): 1
- inhibition of growth at 1.5 ppm [1, 7]: 50%
- inhibition of growth at 6 ppm [1, 7]: 100%
- inhibition of growth at 25 ppm [1, 8]: 100%
- inhibition of growth at 25 ppm [1, 7]: 100%
- inhibition of growth at 0.2 ppm [1, 7]: 0%
- inhibition of growth at 0.4 ppm [1, 7]: 0%
- inhibition of growth at 0.8 ppm [1, 7]: 0%
- inhibition of growth at 1.5 ppm (Piricularia oryzae (PIR); [9]): 50%
- inhibition of growth at 6 ppm (Piricularia oryzae (PIR); [9]): 100%
- inhibition of growth at 25 ppm (Piricularia oryzae (PIR); [10]): 100%
- inhibition of growth at 0.2 ppm (Piricularia oryzae (PIR); [9]): 0%
- inhibition of growth at 0.4 ppm (Piricularia oryzae (PIR); [9]): 0%
- inhibition of growth at 0.8 ppm (Piricularia oryzae (PIR); [9]): 0%
- inhibition of growth at 25 ppm (Piricularia oryzae (PIR); [11]): 100%

SMILES: C[C@H](N)C(=O)N[C@@H](COCc1ccccc1)C(=O)OCC#CI [Compound 19, L-alanyl-O-benzyl-L-serine iodopropargyl ester trifluoroacetate]
- inhibition of growth at 1.5 ppm (UST): 0%
- inhibition of growth at 3 ppm (UST): 0%
- inhibition of growth at 6 ppm (UST): 100%
- inhibition of growth at 25 ppm (UST): 100%
- inhibition of growth at 0.2 ppm (UST): 0%
- inhibition of growth at 0.4 ppm (UST): 0%
- inhibition of growth at 0.8 ppm (UST): 0%
- inhibition of growth (UST): 100%
- MIC [2]: < 0.8 µg/mL
- inhibition of growth at 25 ppm (Fusarium roseum (FUS); [5]): 100%
- inhibition of growth at 1.5 ppm (Fusarium roseum (FUS); Table IVb): 0%
- inhibition of growth at 3 ppm (Fusarium roseum (FUS); Table IVb): 0%
- inhibition of growth at 6 ppm (Fusarium roseum (FUS); Table IVb): 0%
- inhibition of growth at 12 ppm (Fusarium roseum (FUS); Table IVb): 0%
- inhibition of growth at 25 ppm (Fusarium roseum (FUS); [6]): 0%
- inhibition of growth at 0.2 ppm (Fusarium roseum (FUS); Table IVb): 0%
- inhibition of growth at 0.4 ppm (Fusarium roseum (FUS); Table IVb): 0%
- inhibition of growth at 0.8 ppm (Fusarium roseum (FUS); Table IVb): 0%
- MIC [3]: 50 µg/mL
- MIC (Aspergillus niger (ANIG)): < 0.8 µg/mL
- MIC [4]: 100 µg/mL
- inhibition of growth at 1.5 ppm [1, 7]: 0%
- inhibition of growth at 6 ppm [1, 7]: 0%
- inhibition of growth at 25 ppm [1, 8]: 100%
- inhibition of growth at 25 ppm [1, 7]: 100%
- inhibition of growth at 0.2 ppm [1, 7]: 0%
- inhibition of growth at 0.4 ppm [1, 7]: 0%
- inhibition of growth at 0.8 ppm [1, 7]: 0%
- inhibition of growth at 1.5 ppm (Piricularia oryzae (PIR); [9]): 0%
- inhibition of growth at 6 ppm (Piricularia oryzae (PIR); [9]): 0%
- inhibition of growth at 25 ppm (Piricularia oryzae (PIR); [10]): 100%
- inhibition of growth at 0.2 ppm (Piricularia oryzae (PIR); [9]): 0%
- inhibition of growth at 0.4 ppm (Piricularia oryzae (PIR); [9]): 0%
- inhibition of growth at 0.8 ppm (Piricularia oryzae (PIR); [9]): 0%
- inhibition of growth at 25 ppm (Piricularia oryzae (PIR); [11]): 100%
